Measured values: patent US12714688B2, “Margaric acid decreases PIEZ02-mediated pain” (The United States of America, as represented by The …, priority 2020, dated 2026)

Assays:
[1] = test system: mice; assay: Von Frey test after acute inflammation by topical AITC; assay type: in vivo, mouse; settings: topical AITC; saline injected mice; filaments <0.16 g
Experimental: Mice behavior: MA solution: MA was prepared in sterile Dulbecco's phosphate buffered saline, with 70 g/L fatty acid free bovine serum albumin (BSA; Sigma), and MA to a final concentration of 5 mM. The solution was filtered to avoid undissolved materials.
Subjects: For the experiment 8-12 weeks old male and female C57B16/J mice (N=12; control n=6; male=3, female=3) MA (n=6; male=3, female=3) per experiment were used. Mice were housed under a 12 hr light dark cycle and granted access to food and water ad libitum.
Treatment: Animals were put in two groups (control and MA) and given injections in the plantar of the left hind paw for 7 days prior behavioral assessment. Injections were given as follows: Mouse is restrained by their tail, foot, and over shoulders scruff. […]
Mechanical threshold (Von Frey test): Punctate mechanical allodynia was measured using Von Frey monofilaments (Stoelting, Inc.) in varying grams of force (0.008-1 g). Animals were placed in small enclosures over a wire mesh and the plantar of the hind paw was poked with a filament and responses were recorded. Withdrawal responses were recorded when the animal lifted, shook, or licked the paw in response to stimulus presentation. […]

[2] = test system: PIEZO2-PIEZO1 beam chimera; assay: Whole-cell patch-clamp of N2A^Piezo1−/− cells transfected with Piezo2-Piezo1 beam chimera; settings: MA 100 μM 18 h; latrunculin A 1 μM for 1 h
Experimental: (§1) Cell culture and electrophysiology: Piezo1 knock-out mouse N2A (N2A^Piezo1−/−) cells were a gift from Dr. Gary R. Lewin, human Merkel cell carcinoma cell line (MCC13 cells; Cell Bank Australia reference number: CBA1338) were obtained from Sigma, and DRG neurons were obtained from sacrificed mice. N2A^Piezo1−/− cells were cultured in Dulbecco's Modified Eagle Medium (DMEM), 5% penicillin streptomycin and 10% fetal bovine serum (FBS); MCC13 cells were cultured in RPMI 1640 (with 2 mM L-glutamine+25 mM HEPES; Sigma), 5% penicillin-streptomycin and 10% FBS and; DRG neurons were cultured in DMEM, 1% penicillin-streptomycin, 1% MEM vitamin solution, 1% L-glutamine, and 10% horse serum. Prior to electrophysiological measurements, N2A^Piezo1−/−, MCC13 and DRG neurons were supplemented overnight (≈18 h) with MA. […] MA was obtained from Nu-Chek Prep, INC. The cultured cells were maintained at 37° C., 95% relative humidity, and 5% CO2.
For whole-cell recordings, the bath solution contained 140 mM NaCl, 6 mM KCl, 2 mM CaCl2), 1 mM MgCl2, 10 mM glucose, and 10 mM HEPES (pH 7.4; 300 mOsm). The pipette solution for voltage-clamp recordings contained: 140 mM CsCl, 5 mM EGTA, 1 mM CaCl2), 1 mM MgCl2, and 10 mM HEPES (pH 7.2); and for current clamp recordings: 140 mM KCl, 6 mM NaCl, 2 mM CaCl2), 1 mM MgCl2, 10 mM glucose, and 10 mM HEPES (pH 7.4; 300 mOsm); MA and bradykinin acetate salt (Sigma) perfused during experiments were dissolved in the bath solution to a final concentration of 300 μM for 2 min, and 1 μM for 5 min respectively; and for long exposure experiments bradykinin was supplemented to the culture medium and added to the cells 18-24 h prior recording. For cytoskeleton disruption experiments, N2A^Piezo1−/− were incubated in media supplemented with 1 μM latrunculin A (Cayman Chemicals) for 1 h prior recordings. […]
During mechanical stimulation, currents were recorded at a constant voltage (−60 mV, voltage-clamp), and voltages were recorded without injecting current (current-clamp). […]

[3] = test system: mouse PIEZO2; assay: Whole-cell patch-clamp with mechanical indentation of N2A^Piezo1−/− cells transfected with Piezo2 variant 2 (V2); settings: latrunculin A 1 μM for 1 h
Experimental: as §1
For whole-cell recordings, the bath solution contained 140 mM NaCl, 6 mM KCl, 2 mM CaCl2), 1 mM MgCl2, 10 mM glucose, and 10 mM HEPES (pH 7.4; 300 mOsm). The pipette solution for voltage-clamp recordings contained: 140 mM CsCl, 5 mM EGTA, 1 mM CaCl2), 1 mM MgCl2, and 10 mM HEPES (pH 7.2); and for current clamp recordings: 140 mM KCl, 6 mM NaCl, 2 mM CaCl2), 1 mM MgCl2, 10 mM glucose, and 10 mM HEPES (pH 7.4; 300 mOsm); MA and bradykinin acetate salt (Sigma) perfused during experiments were dissolved in the bath solution to a final concentration of 300 μM for 2 min, and 1 μM for 5 min respectively; and for long exposure experiments bradykinin was supplemented to the culture medium and added to the cells 18-24 h prior recording. For cytoskeleton disruption experiments, N2A^Piezo1−/− were incubated in media supplemented with 1 μM latrunculin A (Cayman Chemicals) for 1 h prior recordings. Pipettes were made out of borosilicate glass (Sutter Instruments) and were fire-polished before use until a resistance between 3 and 5 MΩ was reached.
During mechanical stimulation, currents were recorded at a constant voltage (−60 mV, voltage-clamp), and voltages were recorded without injecting current (current-clamp). Both variables were sampled at 100 kHz and low-pass filtered at 10 kHz using a MultiClamp™ 700 B amplifier and Clampex (Molecular Devices, LLC). […] Leak currents before mechanical stimulations were subtracted off-line from the current traces and data were digitally filtered at 2 kHz with ClampFit (Molecular Devices, LLC).
Mechanical stimulation: For indentation assays, N2A^Piezo1−/−, MCC13 DRG neurons, and human iPSC374 derived neurons were mechanically stimulated with a heat-polished blunt glass pipette (3-4 μm) driven by a piezo servo controller (E625, Physik Instrumente). The blunt pipette was mounted on a micromanipulator at an ~45° angle and positioned 3-4 μm above from the cells without indenting them. Displacement measurements were obtained with a square-pulse protocol consisting of 1 μm incremental indentation steps, each lasting 200 ms with a 2-ms ramp in 10-s intervals. The threshold of mechano-activated currents for each experiment was defined as the indentation step that evoked the first current deflection from the baseline.

[4] = test system: mechano-currents from DRG neurons; settings: cited from earlier work

C=CCN=C=S [AITC, Allyl isothiocyanate, reference compound]
withdrawal from von Frey filaments caused by AITC [1]: causes mice to withdraw their hind paws from even the lightest von Frey filaments

C/C1=C/C(=O)O[C@@H]2C[C@@H](CC[C@H](C)/C=C\C=C\CC1)O[C@@](O)([C@@H]1CSC(=O)N1)C2 [latrunculin A, reference compound]
modulation of the MA effect on the chimera by latrunculin A [2]: not modulated by latrunculin A treatment
effect of latrunculin A on PIEZO2 inhibition by MA [3]: enhances PIEZO2 inhibition by MA
effect of latrunculin A on PIEZO2 inhibition by MA ([3]; listed as Latrunculin A): pronounced leftward shift in the MA dose-response profile for PIEZO2

GsMTx-4
inhibition of mechano-currents [4]: failed to inhibit mechano-currents from DRG neurons
